Results as given in patent publication US6998422B2, “Lipid peroxide-lowering compositions” (Sankyo Company, Limited, priority 2000, dated 2006).

Tested on: blood lipid peroxides
Assay: Blood lipid peroxide levels in serum of beagle dogs after oral dosing for 11 days (Yagi's method, fluorometer)
Conditions: relative ratio against averaged pre-dosing level (100), oral capsule once daily, pravastatin 2 mg/kg, mean of 5 dogs
Description: Beagle dogs aged 5 months were purchased from Covance Research Products Inc. and used after 1 month of quarantine and acclimatisation breeding.
The required amounts of pravastatin or each component of the combination drug calculated from the body weight of each dog were weighed and filled in a gelatin capsule purchased from TORPAC Inc. Capsules filled with pravastatin were stocked in a refrigerator and those filled with combination drugs stocked at room temperature until use.
The combination drugs were filled in identical gelatin capsules.
Pravastatin or combination drug capsules were forcibly orally administered to each of the test animals once daily between 9:00 and 12:30. Animals were fasted for 2 or 3 hr prior to administration of the capsules.
The administration period was 11 successive days.
Blood (10 mL) was collected from the superficial radial vein 3 or 4 days prior to administration (−3 or −4 days in the first week prior to capsule administration) and 4 and 8 days after administration of the capsule. Animals were fasted for approximately 18 hr prior to blood collection. Collected blood was placed in a test tube and left at room temperature for 0.5–1 hr and centrifuged (3,000 rpm, for 10 min). The obtained serum was used for assays of blood lipid peroxides according to Yagi's methods.
A fluorometer (Hitachi, Ltd., F3000) was used for assay of the lipid peroxides.
The averaged value in each group was obtained from 5 animals a group.

CC[C@H](C)C(=O)O[C@H]1C[C@H](O)C=C2C=C[C@H](C)[C@H](CC[C@@H](O)C[C@@H](O)CC(=O)O)[C@H]21 [Pravastatin alone, (+)-(3R,5R)-3,5-dihydroxy-7-[(1S,2S,6S,8S,8aR)-6-hydroxy-2-methyl-8-[(S)-2-methylbutyryloxy]-1,2,6,7,8,8a-hexahydro-1-naphthyl]heptanoate]
Blood Lipid Peroxide Levels after administration, 4 days (pantethine 300 mg/kg): 110.8 | Blood Lipid Peroxide Levels after administration, 8 days (pantethine 300 mg/kg): 116.2 | Blood Lipid Peroxide Levels after administration, 4 days (taurine 1,000 mg/kg): 110.8 | Blood Lipid Peroxide Levels after administration, 8 days (taurine 1,000 mg/kg): 116.2

NCCS(=O)(=O)O [Taurine alone, Taurine]
Blood Lipid Peroxide Levels after administration, 4 days (taurine 1,000 mg/kg): 95.8 | Blood Lipid Peroxide Levels after administration, 8 days (taurine 1,000 mg/kg): 93.8
